According to patent US20160257697A1, “THIOPHENE-SUBSTITUTED TETRACYCLIC COMPOUNDS AND METHODS OFUSE THEREOF FOR THE TREATMENT OF VIRAL DISEASES” (priority 2013, published 2016):
pIC50: −log10 of the molar value. Like-named read-outs stand apart in the source and are kept apart here.

Columns and labels:
Experiment in all cases: microbe, parasite or virus in culture
Type in all cases: cell-based, Hepatitis C virus (HCV)
HCV replicon 1AY93H = conditions: Replicon Assay A; for IC50: read-out: 1A Y93H IC50 (nM), replicon 1AY93H
In short: (§1)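 Compound is added to replicon cells plated at 2000 cells/well (0.5% DMSO, 5% FBS). After 3 days the cells are washed and lysed, and HCV RNA and cyclophilin mRNA are quantified by multiplex RT-PCR against a standard curve of known replicon total RNA.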

HCV replicon 2B = conditions: Replicon Assay A; for pIC50: read-out: 2B IC50
In short: as §1

HCV replicon 1A = conditions: Replicon Assay A
In short: as §1

[1] = read-out: 1A Y93H IC50, HCV replicon 1A Y93H
[2] = read-out: 1A Y93H IC50, replicon 1AY93H
[3] = Hepatitis C virus, read-out: 1A Y93H IC50, HCV replicon 1A Y93H

| Compound | pIC50 (HCV replicon 1AY93H; [2]) | pIC50 (HCV replicon 2B; replicon 2B) | pIC50 (HCV replicon 1A; replicon 1A) | other results |
| --- | --- | --- | --- | --- |
| COC(=O)NC(C(=O)N1CCC[C@H]1c1ncc(-c2ccc3c(c2)cc2n3C(c3ccc(C4CC4)s3)Oc3cc(-c4cnc([C@@H]5C[C@H]6C[C@H]6N5C(=O)[C@@H](NC(=O)OC)C(C)C)[nH]4)cc(F)c3-2)[nH]1)C1C[C@@H](C)O[C@@H](C)C1 (single isomer, unassigned) [Compound 537] | – | – | – | pIC50 (HCV replicon 1AY93H; [1]): 9.94; pIC50 (HCV replicon 2B; HCV replicon 2B): 8.96; pIC50 (HCV replicon 1A; HCV replicon 1A): 11.40 |
| COC(=O)N[C@H](C(=O)N1CCC[C@H]1c1ncc(-c2cc(F)c3c(c2)OC(c2cc(C)sc2C)n2c-3cc3cc(-c4cnc([C@@H]5CCCN5C(=O)[C@@H](NC(=O)OC)C(C)C)[nH]4)ccc32)[nH]1)C(C)C (single isomer, unassigned) [Compound 320] | 8.26 | 8.29 | 11.96 | – |
| CCc1ccc(C2Oc3cc(-c4cnc([C@@H]5CCCN5C(=O)[C@@H](NC(=O)OC)C(C)C)[nH]4)cc(F)c3-c3cc4cc(-c5cnc([C@@H]6C[C@@H](F)CN6C(=O)C(NC(=O)OC)C6CCOC(C)(C)C6)[nH]5)ccc4n32)s1 (single isomer, unassigned) [Compound 261] | 10.37 | 8.01 | 11.82 | – |
| COC(=O)N[C@H](C(=O)N1CCC[C@H]1c1ncc(-c2cc(F)c3c(c2)OC(c2scc4c2OCCO4)n2c-3cc3cc(-c4cnc([C@@H]5CCCN5C(=O)[C@@H](NC(=O)OC)C(C)C)[nH]4)ccc32)[nH]1)C(C)C (single isomer, unassigned) [Compound 523] | – | – | – | pIC50 (HCV replicon 1AY93H; [3]): 7.93; pIC50 (HCV replicon 2B; HCV replicon 2B): 7.91; pIC50 (HCV replicon 1A; HCV replicon 1A): 11.49 |
| COC(=O)NC(C(=O)N1CCC[C@H]1c1ncc(-c2ccc3c(c2)cc2n3C(c3ccc(C4CC4)s3)Oc3cc(-c4cnc([C@@H]5CCCN5C(=O)[C@@H](NC(=O)OC)C(C)C)[nH]4)cc(F)c3-2)[nH]1)C1C[C@H](C)O[C@@H](C)C1 (single isomer, unassigned) [Compound 404] | 8.90 | 8.78 | 11.66 | – |
| COC(=O)N[C@H](C(=O)N1C2CC2C[C@H]1c1ncc(-c2cc(F)c3c(c2)OC(c2ccc(C4CC4)s2)n2c-3cc3cc(-c4cnc([C@@H]5CCCN5C(=O)[C@@H](NC(=O)OC)C5C[C@@H](C)O[C@@H](C)C5)[nH]4)ccc32)[nH]1)C(C)C (single isomer, unassigned) [Compound 555] | – | – | – | pIC50 (HCV replicon 1AY93H; [1]): 9.98; pIC50 (HCV replicon 2B; HCV replicon 2B): 9.71; pIC50 (HCV replicon 1A; HCV replicon 1A): 11.62 |
| CCc1ccc(C2Oc3cc(-c4c[nH]c([C@@H]5CCCN5C(=O)[C@@H](NC(=O)OC)C(C)C)n4)ccc3-c3cc4c(F)c(-c5c[nH]c([C@@H]6CCCN6C(=O)C(NC(=O)OC)C6C[C@@H](C)O[C@@H](C)C6)n5)ccc4n32)s1 (single isomer, unassigned) [Compound 360] | 8.45 | 8.60 | – | pIC50 (HCV replicon 1A; Hepatitis C virus, replicon 1A): 11.60 |
| COC(=O)N[C@H](C(=O)N1CCC[C@H]1c1ncc(-c2ccc3c(c2)OC(c2ccc(C4CC4)s2)n2c-3cc3cc(-c4cnc([C@@H]5CCCN5C(=O)[C@@H](NC(=O)OC)C(C)C)[nH]4)ccc32)[nH]1)C(C)C (single isomer, unassigned) [Compound 703] | – | – | – | pIC50 (HCV replicon 1AY93H; [3]): 9.59; pIC50 (HCV replicon 2B; HCV replicon 2B): 9.92; pIC50 (HCV replicon 1A; HCV replicon 1A): 10.52 |
| COC(=O)NC(C(=O)N1CCC[C@H]1c1ncc(-c2cc(F)c3c(c2)OC(c2ccc(C4CC4)s2)n2c-3cc3cc(-c4cnc([C@@H]5CCCN5C(=O)[C@@H](NC(=O)OC)C(C)C)[nH]4)ccc32)[nH]1)C1CCOC(C)(C)C1 (single isomer, unassigned) [Compound 212] | 8.22 | 8.07 | 10.17 | – |
| COC(=O)NC(C(=O)N1CCC[C@H]1c1ncc(-c2ccc3c(c2)cc2n3C(c3ccc(C4CC4)s3)Oc3cc(-c4cnc([C@@H]5CCCN5C(=O)[C@@H](NC(=O)OC)C(C)C)[nH]4)cc(F)c3-2)[nH]1)C1C[C@@H](C)O[C@H](C)C1 (single isomer, unassigned) [Compound 193] | 8.32 | 7.73 | 10.59 | – |
| COC(=O)NC(C(=O)N1CCC[C@H]1c1ncc(-c2cc(F)c3c(c2)OC(c2ccc(C4CCC4)s2)n2c-3cc3cc(-c4cnc([C@@H]5CCCN5C(=O)[C@@H](NC(=O)OC)C5CCOCC5)[nH]4)ccc32)[nH]1)C(C)(C)F (single isomer, unassigned) [Compound 249] | 8.93 | 8.30 | 10.64 | – |
| CCc1ccc(C2Oc3cc(-c4cnc([C@@H]5CCCN5C(=O)[C@@H](NC(=O)OC)C(C)C)[nH]4)cc(F)c3-c3cc4cc(-c5cnc([C@@H]6CCCN6C(=O)C(NC(=O)OC)C6CCOC(C)(C)C6)[nH]5)ccc4n32)s1 (single isomer, unassigned) [Compound 148] | 7.99 | 7.88 | 10.04 | – |
| COC(=O)NC(C(=O)N1CCC[C@H]1c1ncc(-c2ccc3c(c2)cc2n3C(c3ccc(C4CC4)s3)Oc3cc(-c4cnc([C@@H]5CCCN5C(=O)[C@@H](NC(=O)OC)C(C)C)[nH]4)cc(F)c3-2)[nH]1)C1C[C@@H](C)O[C@H](C)C1 (single isomer, unassigned) [Compound 192] | 10.55 | 10.33 | 11.96 | – |
| CCc1ccc(C2Oc3cc(-c4cnc([C@@H]5CCCN5C(=O)C(NC(=O)OC)C5CCOC(C)(C)C5)[nH]4)cc(F)c3-c3cc4cc(-c5cnc([C@@H]6CCCN6C(=O)[C@@H](NC(=O)OC)C(C)C)[nH]5)ccc4n32)s1 (single isomer, unassigned) [Compound 165] | 9.57 | 9.62 | 11.70 | – |
| COC(=O)N[C@H](C(=O)N1CCC[C@H]1c1ncc(-c2cc(F)c3c(c2)OC(c2ccc(C(CF)CF)s2)n2c-3cc3cc(-c4cnc([C@@H]5CCCN5C(=O)[C@@H](NC(=O)OC)C(C)C)[nH]4)ccc32)[nH]1)C(C)C (single isomer, unassigned) [Compound 120] | – | 8.84 | – | IC50 (HCV replicon 1AY93H; Hepatitis C virus): 0.1 nM; pIC50 (HCV replicon 1A; Hepatitis C virus, replicon 1A): 11.82 |
| CCc1ccc(C2Oc3cc(-c4cnc([C@@H]5CCCN5C(=O)[C@@H](NC(=O)OC)C(C)C)[nH]4)cc(F)c3-c3cc4cc(-c5cnc([C@@H]6C[C@H]7C[C@H]7N6C(=O)C(NC(=O)OC)C6CCOC(C)(C)C6)[nH]5)ccc4n32)s1 (single isomer, unassigned) [Compound 196] | 10.21 | 9.26 | 11.74 | – |
| COC(=O)N[C@H](C(=O)N1CCC[C@H]1c1ncc(-c2cc(F)c3c(c2)OC(c2ccc(CCF)s2)n2c-3cc3cc(-c4cnc([C@@H]5CCCN5C(=O)[C@@H](NC(=O)OC)C(C)C)[nH]4)ccc32)[nH]1)C(C)C (single isomer, unassigned) [Compound 43] | 9.92 | 9.27 | – | pIC50 (HCV replicon 1A; Hepatitis C virus, replicon 1A): 11.72 |
| COC(=O)N[C@H](C(=O)N1CCC[C@H]1c1ncc(-c2cc(F)c3c(c2)OC(c2sc(C4CC4)cc2C)n2c-3cc3cc(-c4cnc([C@@H]5CCCN5C(=O)[C@@H](NC(=O)OC)C(C)C)[nH]4)ccc32)[nH]1)C(C)C (single isomer, unassigned) [Compound 328] | 8.55 | 8.76 | – | pIC50 (HCV replicon 1A; Hepatitis C virus, replicon 1A): 12.00 |
| COC(=O)NC(C(=O)N1[C@@H]2C[C@@H]2C[C@H]1c1ncc(-c2ccc3c(c2)cc2n3C(c3ccc(C(F)F)s3)Oc3cc(-c4cnc([C@@H]5CCCN5C(=O)[C@@H](NC(=O)OC)C(C)C)[nH]4)cc(F)c3-2)[nH]1)C1CCOC(C)(C)C1 (single isomer, unassigned) [Compound 414] | – | – | – | pIC50 (HCV replicon 1AY93H; [1]): 9.87; pIC50 (HCV replicon 2B; HCV replicon 2B): 9.34; pIC50 (HCV replicon 1A; Hepatitis C virus, HCV replicon 1A): 11.66 |
| COC(=O)N[C@H](C(=O)N1CCC[C@H]1c1ncc(-c2cc(F)c3c(c2)OC(c2sc(C4CC4)cc2C)n2c-3cc3cc(-c4cnc([C@@H]5CCCN5C(=O)[C@@H](NC(=O)OC)C(C)C)[nH]4)ccc32)[nH]1)C(C)C (single isomer, unassigned) [Compound 329] | 9.03 | 9.22 | 11.92 | – |
| COC(=O)N[C@H](C(=O)N1CCC[C@H]1c1nc(-c2cc(F)c3c(c2)OC(c2ccc(C4CC4)s2)n2c-3cc3cc(-c4c[nH]c([C@@H]5C[C@H]6C[C@H]6N5C(=O)[C@@H](NC(=O)OC)C(C)C)n4)ccc32)c[nH]1)C(C)C (single isomer, unassigned) [Compound 719] | – | – | – | pIC50 (HCV replicon 1AY93H; [1]): 10.49; pIC50 (HCV replicon 2B; HCV replicon 2B): 10.44; pIC50 (HCV replicon 1A; HCV replicon 1A): 11.00 |
| COC(=O)NC(C(=O)N1CCC[C@H]1c1ncc(-c2ccc3c(c2)cc2n3C(c3ccc(C4CC4)s3)Oc3cc(-c4cnc([C@@H]5CCCN5C(=O)[C@@H](NC(=O)OC)C5CCOCC5)[nH]4)cc(F)c3-2)[nH]1)C(C)(C)F (single isomer, unassigned) [Compound 174] | 9.21 | 9.80 | 11.96 | – |
| CC[C@@H]1CC(C(NC(=O)OC)C(=O)N2CCC[C@H]2c2ncc(-c3ccc4c(c3)cc3n4C(c4ccc(C5CC5)s4)Oc4cc(-c5cnc([C@@H]6CCCN6C(=O)[C@@H](NC(=O)OC)C(C)C)[nH]5)cc(F)c4-3)[nH]2)C[C@H](CC)O1 (single isomer, unassigned) [Compound 287] | 10.13 | 9.31 | 11.09 | – |
| COCC(C)(C)c1ccc(C2Oc3cc(-c4cnc([C@@H]5CCCN5C(=O)[C@@H](NC(=O)OC)C(C)C)[nH]4)cc(F)c3-c3cc4cc(-c5cnc([C@@H]6CCCN6C(=O)[C@@H](NC(=O)OC)C(C)C)[nH]5)ccc4n32)s1 (single isomer, unassigned) [Compound 400] | 9.82 | 8.77 | 11.77 | – |
| COC(=O)N[C@H](C(=O)N1CCC[C@H]1c1ncc(-c2cc(F)c3c(c2)OC(c2cc4c(s2)CCCC4)n2c-3cc3cc(-c4cnc([C@@H]5CCCN5C(=O)[C@@H](NC(=O)OC)C(C)C)[nH]4)ccc32)[nH]1)C(C)C (single isomer, unassigned) [Compound 55] | – | – | – | IC50 (HCV replicon 1AY93H; Hepatitis C virus): 3.26 nM; IC50 (HCV replicon 2B; Hepatitis C virus, read-out: 2B IC50 (nM), replicon 2B): 2.53 nM; pIC50 (HCV replicon 1A; Hepatitis C virus, replicon 1A): 11.72 |
